This is an account of results in patent US20260226029A1, “1-(1-Oxo-1,2-Dihydrophthalazin-6-yl)Cycloalkyl-1-Carboxamide Derivatives as MTA-Cooperative Inhibitors of PRMT5” (BeOne Medicines I GmbH, priority 2023, published 2026).

A word on the IC50: it is the midpoint of a concentration-inhibition curve. Read a high IC50 as lower potency.

One assay concerns HCT116-MTAP-KO. As to the kind of experiment: Compounds cell killing in HCT116 isogenic pair (CellTiter-Glo, 6 days), MTAP-KO cells. The class given is cell-based. To be noted: Homo sapiens, HCT-116, 144 h, Cell Titer-Glo, 0-10 μM. The source says: (§1) HCT116 cell line (ATCC, CCL-247) was isolated from the colon of an adult with colon cancer. It has a mutation in codon 13 of the ras proto-oncogene and can be used as a positive control for PCR assays of mutation in this codon. HCT116-MTAP-KO was knocked-out-MTAP-gene based HCT116, and a single clone was passed for this assay. HCT116-mock-RNA-KO was knocked-out-mock-gene based HCT116 with MTAP wildtype genotype. The base medium for HCT116 isogenic pair is RPMI 1640, HEPES (Gibco, 22400105). To make the complete growth medium, add the following components to the base medium: fetal bovine serum to a final concentration of 10% (Gibco, 10099-141C). The cell line was grown in a humidified 5% CO2 atmosphere at 37° C. and regularly tested for the presence of mycoplasma with MycoAlert™ PLUS Mycoplasma Detection Kit (Lonza, LT07-710).
(§2) • Seed HCT116-mock-RNA-KO (4E2/well) or HCT116-MTAP-KO (4E2/well) cells into a 96-well plate (Greiner: 655090), 100 µL/well. • Incubate at 37° C., 5% CO2, overnight. • Add 50 μL fresh growth-medium containing serial dilution of compounds for a final compound concentration of 0-10 μM to each well. • Incubate at 37° C., 5% CO2, 6 days. • The cell viability detected by Cell Titer-Glo (Promega, G7573). Add 70 μL of CellTiter-Glo® reagent in each well. • Incubate at room temperature for 10 minutes to stabilize luminescent signal. • Analyze with Microplate Reader (TECAN, SPARK) and fit IC50 using Prism® 9.
Background: Cellular ATP, detected with luciferase, serves as a proxy for viable cell number.

Another assay deals with HCT116-mock-RNA-KO. In words: Compounds cell killing in HCT116 isogenic pair (CellTiter-Glo, 6 days), mock-KO (MTAP wildtype) cells. It counts as cell-based. As to conditions: Homo sapiens, HCT-116, 144 h, Cell Titer-Glo, 0-10 μM.
Excerpt: as §1, §2

`NCc1n[nH]c(=O)c2ccc(C3(C(=O)N(Cc4ccc(-c5c(F)cccc5F)cn4)C4CCc5cccnc54)CC3)cc12` (stereo not drawn) [Example 33, 1-(4-(aminomethyl)-1-oxo-1,2-dihydrophthalazin-6-yl)-N-((5-(2,6-difluorophenyl)pyridin-2-yl)methyl)-N-(6,7-dihydro-5H-cyclopenta[b]pyridin-7-yl)cyclopropane-1-carboxamide]: the IC50 worked out at 150 nM in the assay on HCT116-MTAP-KO and 9800 nM in the assay on HCT116-mock-RNA-KO.

With `NCc1n[nH]c(=O)c2ccc(C3(C(=O)N(Cc4ccc(Oc5c(F)cccc5F)cn4)[C@@H]4CCCc5cccnc54)CC3)cc12` [Example 34, (R)-1-(4-(aminomethyl)-1-oxo-1,2-dihydrophthalazin-6-yl)-N-((5-(2,6-difluorophenoxy)pyridin-2-yl)methyl)-N-(5,6,7,8-tetrahydroquinolin-8-yl)cyclopropane-1-carboxamide], the IC50 with HCT116-MTAP-KO worked out at 66 nM; in the assay on HCT116-mock-RNA-KO, 3650 nM.

For the molecule `NCc1n[nH]c(=O)c2ccc(C3(C(=O)N(Cc4ccc(C(F)(F)F)cn4)C4CCCc5cccnc54)CCC3)cc12` (stereo not drawn) [Example 35, 1-(4-(aminomethyl)-1-oxo-1,2-dihydrophthalazin-6-yl)-N-(5,6,7,8-tetrahydroquinolin-8-yl)-N-((5-(trifluoromethyl)pyridin-2-yl)methyl)cyclobutane-1-carboxamide], the IC50 in the assay on HCT116-MTAP-KO is 924 nM; in the assay on HCT116-mock-RNA-KO it was greater than 10000 nM.
